Data on 4 compounds can be found in US20230265151A1, “GIP/GLP1 CO-AGONIST COMPOUNDS” (priority 2020, published 2023).

Read-outs that look alike come from different tables or passages of the source.

Common to all, as to format: cell-based
One assay deals with T1, hGIPR (Homo sapiens, UniProt P48546).
T1 construct: expressed in transfected cells
T1 sequence (P48546 22-466): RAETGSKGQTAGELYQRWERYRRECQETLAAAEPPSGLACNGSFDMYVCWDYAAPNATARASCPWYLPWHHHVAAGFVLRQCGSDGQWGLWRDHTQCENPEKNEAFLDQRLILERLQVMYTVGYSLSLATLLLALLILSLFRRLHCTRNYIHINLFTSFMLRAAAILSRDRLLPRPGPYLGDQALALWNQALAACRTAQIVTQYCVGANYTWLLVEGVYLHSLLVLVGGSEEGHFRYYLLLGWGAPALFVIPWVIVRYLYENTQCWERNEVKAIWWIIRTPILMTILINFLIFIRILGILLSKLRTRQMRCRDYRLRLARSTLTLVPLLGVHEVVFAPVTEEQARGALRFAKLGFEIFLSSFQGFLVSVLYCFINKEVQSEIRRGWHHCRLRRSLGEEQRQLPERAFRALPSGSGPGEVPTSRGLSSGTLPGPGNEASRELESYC
Description: Functional cAMP formation (HTRF) in HEK-293 clonal cells expressing hGIPR, 0.1% bovine casein, without or with 1.0% human serum albumin. Particulars: for Emax: percent of maximal response to GIP(1-42)NH2; for EC50: geometric mean. Summed up: (§1)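 Cells were stimulated with peptide for 30 min at 37° C, then intracellular cAMP was measured by competitive HTRF (665/620 nm ratio) and converted to nM using a cAMP standard curve. Relative EC50 and Emax came from four-parameter logistic fits of percent maximal response against peptide concentration.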

The target in the next assay is T2, hGCGR (Homo sapiens, UniProt P47871).
T2 construct: expressed in transfected cells
Description: Functional cAMP formation (HTRF) in HEK-293 clonal cells expressing hGCGR, 0.1% bovine casein, without or with 1.0% human serum albumin. The gist of the method:
as §1

The target of another assay is hGLP-1R (Homo sapiens, UniProt P43220). The assay is described as follows: Functional cAMP formation (HTRF) in HEK-293 clonal cells expressing hGLP-1R, 0.1% bovine casein, without or with 1.0% human serum albumin. The arrangement: expressed in transfected cells. The following applies: for Emax: percent of maximal response to GLP-1(7-36)NH2; for EC50: hGLP-1R EC50, nM (SEM, n), cAMP, 0.1% bovine casein (no human serum albumin), geometric mean. Summed up:
as §1

Where [1] appears, read: HEK293, read-out: hGIPR Emax, % ± SEM, 0.1% bovine casein and 1.0% human serum albumin, 37° C.
Where [2] appears, read: hGIPR EC50, nM (SEM, n), cAMP, 37° C., 0.1% bovine casein (no human serum albumin).
[3] abbreviates: hGCGR EC50, nM (SEM, n), 0.1% bovine casein and 1.0% human serum albumin, 37° C., geometric mean.
Where [4] appears, read: hGCGR EC50, nM (SEM, n), cAMP, 37° C., 0.1% bovine casein (no human serum albumin), geometric mean.
Setting [5] is: HEK293, read-out: hGLP-1R Emax, % ± SEM, 0.1% bovine casein and 1.0% human serum albumin, 37° C.

Sequence of hGLP-1R (P43220 24-463): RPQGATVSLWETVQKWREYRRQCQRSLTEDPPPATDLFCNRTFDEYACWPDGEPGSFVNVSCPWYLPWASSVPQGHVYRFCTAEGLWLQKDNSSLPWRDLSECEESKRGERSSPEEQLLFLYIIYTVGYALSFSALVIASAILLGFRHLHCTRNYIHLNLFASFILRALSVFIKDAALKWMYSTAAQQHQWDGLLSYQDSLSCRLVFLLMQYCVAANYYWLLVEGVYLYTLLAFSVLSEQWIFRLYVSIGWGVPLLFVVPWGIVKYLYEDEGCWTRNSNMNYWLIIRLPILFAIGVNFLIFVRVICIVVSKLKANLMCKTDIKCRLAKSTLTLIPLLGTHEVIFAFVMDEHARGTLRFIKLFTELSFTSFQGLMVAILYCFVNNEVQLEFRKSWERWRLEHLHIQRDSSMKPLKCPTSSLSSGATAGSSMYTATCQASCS
T2 sequence (P47871 26-477): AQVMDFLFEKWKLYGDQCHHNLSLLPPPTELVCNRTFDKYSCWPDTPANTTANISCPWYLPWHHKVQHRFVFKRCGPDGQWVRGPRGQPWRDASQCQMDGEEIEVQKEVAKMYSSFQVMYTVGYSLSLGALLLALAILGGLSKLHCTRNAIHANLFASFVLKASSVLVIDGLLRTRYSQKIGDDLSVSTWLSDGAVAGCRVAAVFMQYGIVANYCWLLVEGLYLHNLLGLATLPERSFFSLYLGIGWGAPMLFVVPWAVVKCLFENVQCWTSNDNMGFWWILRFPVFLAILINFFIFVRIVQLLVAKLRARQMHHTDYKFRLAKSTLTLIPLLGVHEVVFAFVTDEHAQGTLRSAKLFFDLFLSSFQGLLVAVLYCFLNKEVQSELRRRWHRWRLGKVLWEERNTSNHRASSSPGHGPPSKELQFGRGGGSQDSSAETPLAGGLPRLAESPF

Consider `CCCCCCCCCCCC(=O)N[C@@H](CCC(=O)NCCOCCOCC(=O)NCCOCCOCC(=O)NCCCC[C@H](NC(=O)[C@H](CCCN)NC(=O)[C@H](CC(=O)O)NC(=O)[C@H](CC(C)C)NC(=O)[C@](C)(CC(C)C)NC(=O)[C@@H](NC(=O)[C@H](CO)NC(=O)[C@H](Cc1ccc(OC)cc1)NC(=O)[C@H](CC(=O)O)NC(=O)[C@H](CO)NC(=O)[C@@H](NC(=O)[C@](C)(Cc1ccccc1F)NC(=O)[C@@H](NC(=O)CNC(=O)[C@H](CCC(=O)O)NC(=O)C(C)(C)NC(=O)[C@@H](N)Cc1ccc(O)cc1)[C@@H](C)O)[C@@H](C)O)[C@@H](C)CC)C(=O)N[C@@H](C)C(=O)N[C@@H](CCC(N)=O)C(=O)NC(C)(C)C(=O)N[C@@H](CCCCNC(=O)COCCOCCNC(=O)COCCOCCNC(=O)CC[C@H](NC(=O)CCCCCCCCCCC)C(=O)O)C(=O)N[C@@H](Cc1ccccc1)C(=O)N[C@H](C(=O)N[C@H](CCC(=O)O)C(=O)N[C@@](C)(Cc1ccc(O)cc1)C(=O)N[C@@H](CC(C)C)C(=O)N[C@H](C(=O)N[C@@H](CCC(=O)O)C(=O)NCC(=O)NCC(=O)N1CCC[C@H]1C(=O)N[C@@H](CO)C(=O)N[C@@H](CO)C(=O)NCC(=O)N[C@@H](C)C(=O)N1CCC[C@H]1C(=O)N1CCC[C@H]1C(=O)N1CCC[C@H]1C(=O)N[C@@H](CO)C(N)=O)[C@@H](C)CC)[C@@H](C)CC)C(=O)O` [Example 289], for which the maximal response (Emax) on hGIPR (HEK293, 0.1% bovine casein and 1.0% human serum albumin, 37° C., read-out: hGIPR Emax, % ± SEM) stood at 94.9%; at hGIPR (HEK293, cAMP, 37° C., 0.1% bovine casein, arithmetic mean, read-out: hGIPR Emax, % ± SEM), 111%; at hGLP-1R (HEK293, 0.1% bovine casein and 1.0% human serum albumin, 37° C., read-out: hGLP-1R Emax, % ± SEM) it was 170%; at hGLP-1R (HEK293, cAMP, 37° C., 0.1% bovine casein, arithmetic mean, read-out: hGLP-1R Emax, % ± SEM) it was 96.7%. In addition, the 50% effective concentration (EC50) is 0.017 nM at hGIPR (cAMP, 37° C., 0.1% bovine casein (no human serum albumin), read-out: hGIPR EC50, nM (SEM, n)); > 9950 nM on hGCGR (0.1% bovine casein and 1.0% human serum albumin, 37° C., geometric mean, read-out: hGCGR EC50, nM (SEM, n)); > 9950 nM on hGCGR (cAMP, 37° C., 0.1% bovine casein (no human serum albumin), geometric mean, read-out: hGCGR EC50, nM (SEM, n)).

Regarding `CC[C@H](C)[C@H](NC(=O)[C@H](CC(C)C)NC(=O)[C@](C)(Cc1ccc(O)cc1)NC(=O)[C@@H](CCC(=O)O)NC(=O)[C@@H](NC(=O)[C@H](Cc1ccccc1)NC(=O)[C@H](CCC(=O)O)NC(=O)C(C)(C)NC(=O)[C@H](CCC(N)=O)NC(=O)[C@H](C)NC(=O)[C@H](CCCCNC(=O)COCCOCCNC(=O)COCCOCCNC(=O)CC[C@H](NC(=O)CCCCCCCCCCOc1ccc(C(=O)O)cc1)C(=O)O)NC(=O)[C@H](CCCN)NC(=O)[C@H](CC(=O)O)NC(=O)[C@H](CC(C)C)NC(=O)[C@](C)(CC(C)C)NC(=O)[C@@H](NC(=O)[C@H](CO)NC(=O)[C@H](Cc1ccncc1)NC(=O)[C@H](CC(=O)O)NC(=O)[C@H](CO)NC(=O)[C@@H](NC(=O)[C@](C)(Cc1ccccc1F)NC(=O)[C@@H](NC(=O)CNC(=O)[C@H](CCC(=O)O)NC(=O)C(C)(C)NC(=O)[C@@H](N)Cc1ccc(O)cc1)[C@@H](C)O)[C@@H](C)O)[C@@H](C)CC)[C@@H](C)CC)C(=O)N[C@@H](CCC(=O)O)C(=O)NCC(=O)NCC(=O)N1CCC[C@H]1C(=O)N[C@@H](CO)C(=O)N[C@@H](CO)C(=O)NCC(=O)N[C@@H](C)C(=O)N1CCC[C@H]1C(=O)N1CCC[C@H]1C(=O)N1CCC[C@H]1C(=O)N[C@@H](CO)C(=O)N[C@@H](CCCCNC(=O)COCCOCCNC(=O)COCCOCCNC(=O)CC[C@H](NC(=O)CCCCCCCCCCOc1ccc(C(=O)O)cc1)C(=O)O)C(N)=O` [Example 285], the Emax at hGIPR (setting [1]) worked out at 84.7%; on hGLP-1R (setting [5]) it was 105%. Also, the half-maximal effective concentration (EC50) at hGIPR (hGIPR EC50, nM (SEM, n), 0.1% bovine casein and 1.0% human serum albumin, 37° C.) was 1.28 nM; at hGIPR (setting [2]), 0.0115 nM; on hGCGR (setting [3]), > 9950 nM; at hGCGR (setting [4]) it was > 9950 nM; on hGLP-1R (37° C.), 1.21 nM.

As to `CCCC[C@H](NC(=O)[C@H](CC(=O)O)NC(=O)[C@H](CO)NC(=O)[C@@H](NC(=O)[C@](C)(Cc1ccccc1F)NC(=O)[C@@H](NC(=O)CNC(=O)[C@H](CCC(=O)O)NC(=O)C(C)(C)NC(=O)[C@@H](N)Cc1ccc(O)cc1)[C@@H](C)O)[C@@H](C)O)C(=O)N[C@@H](CO)C(=O)N[C@H](C(=O)N[C@@](C)(CC(C)C)C(=O)N[C@@H](CC(C)C)C(=O)N[C@@H](CC(=O)O)C(=O)N[C@@H](CCCN)C(=O)N[C@H](C(=O)N[C@@H](C)C(=O)N[C@@H](CCC(N)=O)C(=O)NC(C)(C)C(=O)N[C@@H](CCCCNC(=O)COCCOCCNC(=O)COCCOCCNC(=O)CC[C@H](NC(=O)CCCCCCCCCOc1ccc(C(=O)O)cc1)C(=O)O)C(=O)N[C@@H](Cc1ccccc1)C(=O)N[C@H](C(=O)N[C@H](CCC(=O)O)C(=O)N[C@@](C)(Cc1ccc(O)cc1)C(=O)N[C@@H](CC(C)C)C(=O)N[C@H](C(=O)N[C@@H](CCCCNC(=O)COCCOCCNC(=O)COCCOCCNC(=O)CC[C@H](NC(=O)CCCCCCCCCOc1ccc(C(=O)O)cc1)C(=O)O)C(=O)NCC(=O)NCC(=O)N1CCC[C@H]1C(=O)N[C@@H](CO)C(=O)N[C@@H](CO)C(=O)NCC(=O)N[C@@H](C)C(=O)N1CCC[C@H]1C(=O)N1CCC[C@H]1C(=O)N1CCC[C@H]1C(=O)N[C@@H](CO)C(N)=O)[C@@H](C)CC)[C@@H](C)CC)[C@@H](C)CC)[C@@H](C)CC` [Example 333], the maximum response (Emax) at hGIPR (HEK293, read-out: hGIPR Emax, % ± SEM, cAMP, 37° C., 0.1% bovine casein and 1.0% human serum albumin) was 100%; on hGIPR (HEK293, read-out: hGIPR Emax, % ± SEM, cAMP, 37° C., 0.1% bovine casein, arithmetic mean) it was 109%; at hGLP-1R (HEK293, read-out: hGLP-1R Emax, % ± SEM, cAMP, 37° C., 0.1% bovine casein and 1.0% human serum albumin), 93.3%. The EC50 was 0.0062 nM on hGIPR (setting [2]); > 9950 nM at hGCGR (setting [4]); > 9950 nM on hGCGR (hGCGR EC50, nM (SEM, n), cAMP, 37° C., 0.1% bovine casein and 1.0% human serum albumin, geometric mean (SEM, n)); 0.388 nM at hGLP-1R (37° C.).

For `CC[C@H](C)[C@H](NC(=O)[C@H](CC(C)C)NC(=O)[C@](C)(Cc1ccc(O)cc1)NC(=O)[C@@H](CCC(=O)O)NC(=O)[C@@H](NC(=O)[C@H](Cc1ccccc1)NC(=O)[C@H](CCC(=O)O)NC(=O)C(C)(C)NC(=O)[C@H](CCC(N)=O)NC(=O)[C@H](C)NC(=O)[C@H](CCCCNC(=O)COCCOCCNC(=O)COCCOCCNC(=O)CC[C@H](NC(=O)CCCCCCCCCOc1ccc(C(=O)O)cc1)C(=O)O)NC(=O)[C@H](CCCN)NC(=O)[C@H](CC(=O)O)NC(=O)[C@H](CC(C)C)NC(=O)[C@](C)(CC(C)C)NC(=O)[C@@H](NC(=O)C(C)(C)NC(=O)[C@H](Cc1ccc(O)cc1)NC(=O)[C@H](CC(=O)O)NC(=O)[C@H](CO)NC(=O)[C@@H](NC(=O)[C@](C)(Cc1ccccc1F)NC(=O)[C@@H](NC(=O)CNC(=O)[C@H](CCC(=O)O)NC(=O)C(C)(C)NC(=O)[C@@H](N)Cc1ccc(O)cc1)[C@@H](C)O)[C@@H](C)O)[C@@H](C)CC)[C@@H](C)CC)C(=O)N[C@@H](CCCCNC(=O)COCCOCCNC(=O)COCCOCCNC(=O)CC[C@H](NC(=O)CCCCCCCCCOc1ccc(C(=O)O)cc1)C(=O)O)C(=O)NCC(=O)NCC(=O)N1CCC[C@H]1C(=O)N[C@@H](CO)C(=O)N[C@@H](CO)C(=O)NCC(=O)N[C@@H](C)C(=O)N1CCC[C@H]1C(=O)N1CCC[C@H]1C(=O)N1CCC[C@H]1C(=O)N[C@@H](CO)C(N)=O` [Example 237], the Emax on hGIPR (setting [1]) worked out at 93.1%; on hGLP-1R (setting [5]), 113%. For the same compound, the half-maximal effective concentration (EC50) at hGIPR (hGIPR EC50, nM (SEM, n), cAMP, incubated at 37° C., 0.1% bovine casein (no human serum albumin)) was 0.0186 nM; at hGCGR (setting [3]), > 9950 nM; at hGCGR (hGCGR EC50, nM (SEM, n), cAMP, incubated at 37° C., 0.1% bovine casein (no human serum albumin), geometric mean), > 9950 nM; at hGLP-1R (incubated at 37° C.), 0.633 nM.
